Measurements published in the SangsterLogP compilation.

Experiment: method code SF-AS, from DOI: 10.1016/0009-2797(77)90026-6

Row | SMILES | logP
1 | CN(C)C(=O)N(C)N=O | 0.36
2 | O=NN1CCCN(N=O)CC1 | -0.51
3 | O=NN1CCCC(O)C1 (configuration not stated) | -0.47
4 | O=NN1CCC(c2ccccc2)CC1 | 2.59
5 | CCCCCCCCCCCCN(C)N=O | 2.18
6 | CCN(N=O)C(=O)N(C)C | 0.71
7 | N#CCCN(CCC#N)N=O | 0.08
8 | CC1CCN(N=O)CC1 | 1.05
9 | O=NN1CCSCC1 | 0.4
10 | CC1CN(N=O)C(C)CN1N=O (configuration not stated) | 0.15
11 | CC1CC(C)CN(N=O)C1 (configuration not stated) | 1.53
12 | O=NN1CCC(Br)C(Br)C1 (configuration not stated) | 1.23
13 | O=NN1CC=CCC1 | 1.18
14 | CC1CN(C(=O)c2ccccc2)CC(C)N1N=O (configuration not stated) | 1.04
15 | CC1CN(N=O)CC(C)N1 (configuration not stated) | 0.73
16 | CC1CCCN(N=O)C1 (configuration not stated) | 0.99
17 | CN(N=O)C1CCCCC1 | 1.43
18 | O=NN1CCCCCC1 | 0.92
19 | CC1CCCC(C)N1N=O (configuration not stated) | 1.36
20 | CN1CCN(N=O)CC1 | 0.2
21 | O=NN1CCNCC1 | 0.18
22 | CC1C(c2ccccc2)OCCN1N=O (configuration not stated) | 2.09
23 | CC1C(C)N(N=O)C(C)C(C)N1N=O (configuration not stated) | 0.91
24 | CN(CC(C)(C)C)N=O | 1.34

Row | SMILES | logP
25 | O=NN1CCC(Cl)C(Cl)C1 (configuration not stated) | 1.04
26 | CC1CN(N=O)CC(C)N1C(=O)c1ccccc1 (configuration not stated) | 1.41
27 | O=NN(CC(F)(F)F)CC(F)(F)F | 2.15
28 | O=NN1CC=CC1 | 0.26
29 | O=NN1CCCCC1 | 0.63
30 | O=NN1CCCCCCCC1 | 2.04
31 | CCN(CC)C(=O)N(C)N=O | 1.11
32 | O=NN1CCN(N=O)CC1 | -0.85
33 | CC1CN(N=O)CCN1N=O (configuration not stated) | -0.28
34 | CC(C)(C)C1CCN(N=O)CC1 | 2.54
35 | O=NN1CCC(O)CC1 | -0.89
36 | CCOCCN(CCOCC)N=O | 0.79
37 | CC1CN(N=O)CC(C)N1N=O (configuration not stated) | 0.08
38 | CC1CCCCN1N=O (configuration not stated) | 0.71
39 | COCCN(CCOC)N=O | -0.38
40 | CC1CN(N=O)CC(C)O1 (configuration not stated) | 0.32
41 | O=NN1CCC(=O)CC1 | -0.47
42 | N#CCN(CC#N)N=O | 0.04
43 | O=NN1CCCC1 | -0.19
44 | CCN(CC)C(=O)N(CC)N=O | 1.54
45 | CC1(C)CCCC(C)(C)N1N=O | 2.49
46 | CC1CCC(C)N1N=O (configuration not stated) | 0.86
47 | O=NN1CCCCCCC1 | 1.48
